From patent publication US20140023656A1, “PHARMACEUTICAL COMPOSITION FOR TREATMENT AND PREVENTION OF TH3 MARCH-RELATED DISEASES” (BioLT CO., LTD., priority 2010, published 2014)

Tests used:
filaggrin (FLG) proteins = assay: ELISA measurement of filaggrin (FLG) and filaggrin repair capacity; assay type: in vivo, human; details: person, vulgaris psoriasis
Source text: A kit for sandwich enzyme immunoassay was used for quantitatively in vitro measuring filaggrin (FLG) proteins (gene related filaggrin) in a tissue homogenate or other body fluids.
Specifically, as for detection strength, measurement was done at a wavelength of 450 nm. Biotin-coupled polyclonal antibody specifically coupled with FLG was used, and the actual measured value of filaggrin (ng/ml frozen serum) was roughly estimated by a standard curve (FIG. 17) previously prepared with FLG standard sample.
Amongst mammal patients (human and dog etc.) having Th3 march/test animals, patients an amount of filaggrin proteins based on filaggrin (FLG) gene which is responsible gene of atopy syndrome (atopy is newly defined as atopy syndrome by the finding of filaggrin) were not detected or were detected in a small amount (deletion or mutation of filaggrin gene) were selected (Th3-FLG).
Subsequently, “zinc finger/Znf” (see Table 5 above) was administrated to the patients etc. (Th3-FLG) in which deletion etc. of filaggrin were confirmed, after which filaggrin repair activity was compared. […]
The filaggrin repair capacity (% of control) by zinc finger/Znf was calculated according to the following formula: […]

vulgaris psoriasis = assay: Clinical effects in vulgaris psoriasis (Th1 disease/Th3 march); assay type: in vivo, human; details: person, oral 75 mg twice per day as polaprezinc, 61 days
Procedure: This example is an example of treatment of Th2 march patient from Th1 disease (psoriasis). (1) For referential example (control experiment), zinc agent (Trade name: Promac) was tried to be administrated to this patient. Since the activated TGF-β1 was as high as 9.3 ng/ml (average value of healthy subjects: 1.1 ng/ml), a novel supplement TgF was administrated to regulate TGF-β1. Thereafter, Promac was orally administrated to the adult twice per day in an amount of 75 mg per one dosage, or 1.6 mg/kg at a time after breakfast and a time before bedtime as polaprezinc. Promac was administrated for 61 days. […] (2) On the other hand, zinc finger/Znf was administrated to the patient for 74 days. This case (vulgaris psoriasis) is a disease presenting hyperkeratosis and is characterized by scale.

dog rheumatoid arthritis = assay: Treatment of dog rheumatoid arthritis (plain x-ray examination, walking); assay type: in vivo
Source text: FIG. 3 is a drawing showing the results of examining characteristic bone resorption in dog rheumatoid arthritis. Th3 march via zinc cell cytokine signal is marching through a route of cell surface BMP and TGF-β1. […] When the healing can be seen thereafter (FIG. 4), bone resorption and bone augmentation are equilibrated. However, TH3 vital reaction is enhanced to clinically induce atopic dermatitiss.
In FIG. 4, according to the finding of the plain x-ray examination, a bone resorption image of arthritis due to rheumatoid arthritis which is Th1 vital reactive disease (pretreatment) is shown. In the right figure of FIG. 4 showing the post-treatment, an improvement image of joint was seen when bone resorption and bone augmentation were balanced. […] According to the finding of post-treatment in the right figure of FIG. 4, incisura trochlearis in the elbow joint was visualized and significant improvement tendency was observed (Evaluation: While the dog before treatment hated going for a walk, the dog could go for a walk (about 5 minutes). It is noted that the standard walking period in the same kind of dog is within 30 minutes).

Q: How did the filaggrin (filaggrin (FLG) proteins; at the time after zinc agent (control experiment)) turn out when `NCCC(=O)[N-][C@@H](Cc1c[nH]cn1)C(=O)[O-].[Zn+2]` [Promac, polaprezinc] was run?
A: Its filaggrin is 0.9 ng/mL.

Q: And the FLA repair (filaggrin (FLG) proteins; oral 75 mg twice per day as polaprezinc, 61 days)?
A: The FLA repair was “could not be recognized”.

Q: And the clinical effect (vulgaris psoriasis)?
A: The clinical effect was “no clinical effect could be recognized”.

Q: What about the clinical effect (vulgaris psoriasis; listed as zinc agent) of the same molecule?
A: Its clinical effect is “no effect”.

B1: IFN-γ: recombinant interferon-gamma used to treat dog rheumatoid arthritis (protein, UniProt P42161 24-166, looked up)
Interferon gamma: QAMFFKEIENLKEYFNASNPDVSDGGSLFVDILKKWREESDKTIIQSQIVSFYLKLFDNFKDNQIIQRSMDTIKEDMLGKFLNSSTSKREDFLKLIQIPVNDLQVQRKAINELIKVMNDLSPRSNLRKRKRSQNLFRGRRASK
Q: Which “walk the dog could go for” value (dog rheumatoid arthritis; dog after treatment, before treatment hated going for a walk, standard within 30 minutes) does the source give for B1 here?
A: The value was “about 5 minutes”.

Q: What about the “bone resorption during the course of the treatment” value (dog rheumatoid arthritis; dog rheumatoid arthritis, FIG. 3) of the same molecule?
A: The value was “bone resorption is predominant”.

Q: And the “hyperpermeability image due to invasion around the joint and inflammation of joint” value (dog rheumatoid arthritis; dog, Th1 arthritis, direct administration of 4MU within the joint, plain x-ray)?
A: The value was “significantly improved”.
